From patent US9593108B2, “Compounds and methods for antiviral treatment” (PTC Therapeutics, Inc., priority 2009, dated 2017)
pIC50: −log10 of the molar value.

Tests used:
[1] = test system: HCV replicon RNA (GenBank Accession No. AJ242654); assay: HCV Replicon Assay (replicon RNA reduction and/or Fluc reporter signal); assay type: cell-based, Hepatitis C virus; details: Hepatitis C virus, 72 h, replicon-containing cells cultured with test compound for up to 3 days
Procedure, shortened: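 Bicistronic replicon-containing cells cultured with compound for up to 3 days, with interferon as positive control. Inhibition quantified by replicon RNA reduction and/or Fluc reporter signal; IC50 values generally derived from replicon RNA reduction.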

Structure (SMILES)	melting point	pIC50 [1]
NC(=O)c1c(-c2ccc(S(=O)(=O)NC3(C(F)(F)F)CC3)cc2)n(C2CCC2)c2ncc(C3CC3)cc12 [Cpd 373, 1-cyclobutyl-5-cyclopropyl-2-(4-{[1-(trifluoromethyl)cyclopropyl]sulfamoyl}phenyl)-1H-pyrrolo[2,3-b]pyridine-3-carboxamide]	224 to 229 °C	> 6.30
C[C@@H](NS(=O)(=O)c1ccc(-c2c(C#N)c3cc(OC(F)F)cnc3n2C2CCC2)cc1)C(F)(F)F [Cpd 199, 4-[3-cyano-1-cyclobutyl-5-(difluoromethoxy)-1H-pyrrolo[2,3-b]pyridin-2-yl]-N-[(2R)-1,1,1-trifluoropropan-2-yl]benzenesulfonamide]	199 to 200 °C	> 6.30
Cc1cnc2c(c1)c(C#N)c(-c1ccc(S(=O)(=O)N[C@@H](C)C(F)(F)F)cn1)n2-c1ccncc1 [Cpd 368, 6-[3-cyano-5-methyl-1-(pyridin-4-yl)-1H-pyrrolo[2,3-b]pyridin-2-yl]-N-[(2S)-1,1,1-trifluoropropan-2-yl]pyridine-3-sulfonamide]	243 to 245 °C	> 6.30
COc1cnc2c(c1)c(C#N)c(-c1ccc(S(=O)(=O)NC3CC3)cn1)n2C1CCC1 [Cpd 310, 6-(3-cyano-1-cyclobutyl-5-methoxy-1H-pyrrolo[2,3-b]pyridin-2-yl)-N-cyclopropylpyridine-3-sulfonamide]	161 to 162 °C	> 6.30
Cc1ccc2c(C#N)c(-c3ccc(S(=O)(=O)NC4(C)CC4)cc3)n(C3CCC3)c2n1 [Cpd 143, 4-(3-cyano-1-cyclobutyl-6-methyl-1H-pyrrolo[2,3-b]pyridin-2-yl)-N-(1-methylcyclopropyl)benzenesulfonamide]	200 to 207 °C	> 6.30
COc1cnc2c(c1)c(C#N)c(-c1ncc(S(=O)(=O)NC3(C)CC3)cn1)n2C1CCC1 [Cpd 313, 2-(3-cyano-1-cyclobutyl-5-methoxy-1H-pyrrolo[2,3-b]pyridin-2-yl)-N-(1-methylcyclopropyl)pyrimidine-5-sulfonamide]	209 to 212 °C	> 6.30
CC(C)(C)NS(=O)(=O)c1ccc(-c2c(C(N)=O)c3cc(C4CC4)cnc3n2C2CCC2)nc1 [Cpd 376, 2-[5-(tert-butylsulfamoyl)pyridin-2-yl]-1-cyclobutyl-5-cyclopropyl-1H-pyrrolo[2,3-b]pyridine-3-carboxamide]	245 to 252 °C	> 6.30
CC(C)(NS(=O)(=O)c1ccc(-c2c(C#N)c3cc(OC(F)F)cnc3n2C2CCC2)nc1)C(F)(F)F [Cpd 201, 6-[3-cyano-1-cyclobutyl-5-(difluoromethoxy)-1H-pyrrolo[2,3-b]pyridin-2-yl]-N-(1,1,1-trifluoro-2-methylpropan-2-yl)pyridine-3-sulfonamide]	168 to 169 °C	> 6.30
C[C@@H](NS(=O)(=O)c1ccc(-c2c(C#N)c3cnc(Cl)cc3n2C2CCCC2)cc1)C(F)(F)F [Cpd 88, 4-(6-chloro-3-cyano-1-cyclopentyl-1H-pyrrolo[3,2-c]pyridin-2-yl)-N-[(2R)-1,1,1-trifluoropropan-2-yl]benzenesulfonamide]	239 to 241 °C	> 6.30
Cc1cnc2c(C#N)c(-c3ccc(S(=O)(=O)N[C@@H](C)C(F)(F)F)cc3)n(C3CCCC3)c2c1 [Cpd 180, 4-(3-cyano-1-cyclopentyl-6-methyl-1H-pyrrolo[3,2-b]pyridin-2-yl)-N-[(2S)-1,1,1-trifluoropropan-2-yl]benzenesulfonamide]	278 to 279 °C	5.70 to 6.30
C[C@@H](NS(=O)(=O)c1ccc(-c2c(C#N)c3cc(C(F)(F)F)cnc3n2C2CCCC2)nc1)C(F)(F)F [Cpd 230, 6-[3-cyano-1-cyclopentyl-5-(trifluoromethyl)-1H-pyrrolo[2,3-b]pyridin-2-yl]-N-[(2R)-1,1,1-trifluoropropan-2-yl]pyridine-3-sulfonamide]	208 to 210 °C	> 6.30
Cc1cc2c(cn1)c(C#N)c(-c1ccc(S(=O)(=O)NC(CF)CF)cc1)n2C1CCC1 [Cpd 33, 4-(3-cyano-1-cyclobutyl-6-methyl-1H-pyrrolo[3,2-c]pyridin-2-yl)-N-(1,3-difluoropropan-2-yl)benzenesulfonamide]	234 to 236 °C	> 6.30
C[C@H](NS(=O)(=O)c1ccc(-c2c(C#N)c3cc(C(F)(F)F)cnc3n2C2CCCC2)nc1)C(F)(F)F [Cpd 229, 6-[3-cyano-1-cyclopentyl-5-(trifluoromethyl)-1H-pyrrolo[2,3-b]pyridin-2-yl]-N-[(2S)-1,1,1-trifluoropropan-2-yl]pyridine-3-sulfonamide]	205 to 207 °C	> 6.30
Cc1ccc2c(C#N)c(-c3ccc(S(=O)(=O)NC(CF)CF)cc3)n(C3CCC3)c2n1 [Cpd 145, 4-(3-cyano-1-cyclobutyl-6-methyl-1H-pyrrolo[2,3-b]pyridin-2-yl)-N-(1,3-difluoropropan-2-yl)benzenesulfonamide]	182 to 193 °C	> 6.30
Cc1cnc2c(c1)c(C#N)c(-c1ccc(NC(=O)NC(C)C)cc1)n2C1CCC1 [Cpd 266, 1-[4-(3-cyano-1-cyclobutyl-5-methyl-1H-pyrrolo[2,3-b]pyridin-2-yl)phenyl]-3-propan-2-ylurea]	224 to 231 °C	> 6.30
CC(C)(NS(=O)(=O)c1ccc(-c2c(C(N)=O)c3cc(Cl)cnc3n2C2CCC2)nc1)C(F)(F)F [Cpd 326, 5-chloro-1-cyclobutyl-2-{5-[(1,1,1-trifluoro-2-methylpropan-2-yl)sulfamoyl]pyridin-2-yl}-1H-pyrrolo[2,3-b]pyridine-3-carboxamide]	239 to 241 °C	> 6.30
CC(C)(NS(=O)(=O)c1ccc(-c2c(C(N)=O)c3cc(C(F)(F)F)cnc3n2C2CCC2)nc1)C(F)(F)F [Cpd 399, 1-cyclobutyl-5-(trifluoromethyl)-2-{5-[(1,1,1-trifluoro-2-methylpropan-2-yl)sulfamoyl]pyridin-2-yl}-1H-pyrrolo[2,3-b]pyridine-3-carboxamide]	217 to 219 °C	> 6.30
CC(C)(C)NS(=O)(=O)c1ccc(-c2c(C#N)c3cc(Cl)cnc3n2C2CCC2)cc1 [Cpd 371, N-tert-butyl-4-(5-chloro-3-cyano-1-cyclobutyl-1H-pyrrolo[2,3-b]pyridin-2-yl)benzenesulfonamide]	244 to 246 °C	> 6.30
C[C@H](NS(=O)(=O)c1ccc(-c2c(C#N)c3cc([S+](C)[O-])cnc3n2C2CCC2)nc1)C(F)(F)F (stereo partly drawn) [Cpd 363, [3-cyano-1-cyclobutyl-2-(5-{[(2S)-1,1,1-trifluoropropan-2-yl]sulfamoyl}pyridin-2-yl)-1H-pyrrolo[2,3-b]pyridin-5-yl](methyl)sulfoniumolate]	257 to 258 °C	> 6.30
C[C@H](NS(=O)(=O)c1cnc(-c2c(C#N)c3cc(C4CC4)cnc3n2C2CCC2)nc1)C(F)(F)F [Cpd 119, 2-(3-cyano-1-cyclobutyl-5-cyclopropyl-1H-pyrrolo[2,3-b]pyridin-2-yl)-N-[(2S)-1,1,1-trifluoropropan-2-yl]pyrimidine-5-sulfonamide]	176 to 183 °C	> 6.30
